Laboratory results taken from patent US12599136B2, “Substituted isophthalic acid diamides and their use as herbicides” (Bayer Aktiengesellschaft, priority 2020, dated 2026).

What was measured:
Type in all cases: in vivo
Digitaria sanguinalis [1] = experiment: Post-emergence herbicidal action against DIGSA
Procedure: Seeds of monocotyledonous and dicotyledonous weed and crop plants are laid out in sandy loam soil in wood-fiber pots, covered with soil and cultivated in a greenhouse under good growth conditions. 2 to 3 weeks after sowing, the test plants are treated at the one-leaf stage. The compounds of the invention, formulated in the form of wettable powders (WP) or as emulsion concentrates (EC), are then sprayed onto the green parts of the plants in the form of an aqueous suspension or emulsion at a water application rate equivalent to 600 to 800 l/ha, with addition of 0.2% wetting agent. After the test plants have been left to stand in the greenhouse under optimal growth conditions for about 3 weeks, the action of the preparations is assessed visually in comparison to untreated controls (herbicidal action in percent (%): 100% activity=the plants have died, 0% activity=like control plants). […] The tables below illustrate, in an illustrative manner, the post-emergence herbicidal action of the compounds of the invention, the herbicidal activity being stated in percent.

Veronica persica [2] = experiment: Pre-emergence herbicidal action against VERPE; conditions: 80 g/ha
Procedure, shortened: (§1)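 Sandy loam pots, seeds covered with soil, then surface-treated with WP or EC formulations at 600–800 l/ha water plus 0.2% wetting agent. Greenhouse, 3 weeks. Percent damage vs untreated controls.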

Viola tricolor [3] = experiment: Post-emergence herbicidal action against VIOTR
Procedure, shortened: (§2)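 Herbicidal action is a visual percentage rating (0% = as untreated control, 100% = plants dead) made roughly 3 weeks after treatment. Plants were grown in sandy loam in the greenhouse and treated at the one-leaf stage, 2 to 3 weeks post-sowing. Treatment was a foliar spray of wettable-powder or emulsion-concentrate formulations at 600 to 800 l/ha water plus 0.2% wetting agent.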

Viola tricolor [4] = experiment: Pre-emergence herbicidal action against VIOTR
Procedure, shortened: as §1

Abutilon theophrasti [5] = experiment: Post-emergence herbicidal action against ABUTH
Procedure, shortened: as §2

Matricaria inodora [6] = experiment: Pre-emergence herbicidal action against MATIN; conditions: visual score after 3 weeks vs untreated controls
Procedure, shortened: as §1

Setaria viridis [7] = experiment: Pre-emergence herbicidal action against SETVI; conditions: 80 g/ha
Procedure, shortened: as §1

Setaria viridis [8] = experiment: Post-emergence herbicidal action against SETVI; conditions: visual assessment about 3 weeks after treatment
Procedure, shortened: as §2

Digitaria sanguinalis [9] = experiment: Pre-emergence herbicidal action against DIGSA
Procedure, shortened: as §1

Alopecurus myosuroides [10] = experiment: Pre-emergence herbicidal action against ALOMY; conditions: visual score after 3 weeks vs untreated controls
Procedure, shortened: as §1

Amaranthus retroflexus [11] = experiment: Pre-emergence herbicidal action against AMARE; conditions: visual score after 3 weeks vs untreated controls
Procedure, shortened: as §1

Abutilon theophrasti [12] = experiment: Pre-emergence herbicidal action against ABUTH; conditions: visual score after 3 weeks vs untreated controls
Procedure, shortened: as §1

Pharbitis purpurea = experiment: Post-emergence herbicidal action against PHBPU; conditions: visual assessment about 3 weeks after treatment
Procedure, shortened: as §2

Avena fatua [13] = experiment: Post-emergence herbicidal action against AVEFA; conditions: 20 g/ha, visual assessment about 3 weeks after treatment
Procedure, shortened: as §2

Amaranthus retroflexus [14] = experiment: Post-emergence herbicidal action against AMARE; conditions: visual assessment about 3 weeks after treatment
Procedure, shortened: as §2

Alopecurus myosuroides [15] = experiment: Post-emergence herbicidal action against ALOMY
Procedure, shortened: as §2

Echinochloa crus-galli [16] = experiment: Post-emergence herbicidal action against ECHCG; conditions: visual assessment about 3 weeks after treatment
Procedure, shortened: as §2

Echinochloa crus-galli [17] = experiment: Pre-emergence herbicidal action against ECHCG; conditions: 80 g/ha; visual score after 3 weeks vs untreated controls
Procedure, shortened: as §1

Matricaria inodora [18] = experiment: Post-emergence herbicidal action against MATIN; conditions: visual assessment about 3 weeks after treatment
Procedure, shortened: as §2

Veronica persica [19] = experiment: Post-emergence herbicidal action against VERPE; conditions: 20 g/ha, visual assessment about 3 weeks after treatment
Procedure, shortened: as §2

Polygonum convolvulus = experiment: Pre-emergence herbicidal action against POLCO; conditions: 80 g/ha
Procedure, shortened: as §1

Avena fatua [20] = experiment: Pre-emergence herbicidal action against AVEFA; conditions: 80 g/ha; visual score after 3 weeks vs untreated controls
Procedure, shortened: as §1

Lolium rigidum = experiment: Pre-emergence herbicidal action against LOLRI; conditions: 80 g/ha
From the text: Seeds of monocotyledonous and dicotyledonous weed plants and crop plants are laid out in sandy loam soil in wood-fiber pots and covered with soil. The compounds of the invention, formulated in the form of wettable powders (WP) or as emulsion concentrates (EC), are then applied to the surface of the covering soil in the form of an aqueous suspension or emulsion at a water application rate equivalent to 600 to 800 l/ha, with addition of 0.2% wetting agent. After the treatment, the pots are placed in a greenhouse and kept under good growth conditions for the trial plants. The damage to the test plants is scored visually after a test period of 3 weeks by comparison with untreated controls (herbicidal activity in percent (%): 100% activity=the plants have died, 0% activity=like control plants). […] The tables below illustrate, in an illustrative manner, the post-emergence herbicidal action of the compounds of the invention, the herbicidal activity being stated in percent.

Compound | Post-emergence action against DIGSA in % (Digitaria sanguinalis [1]; 20 g/ha) | Pre-emergence action against VERPE (Veronica persica [2]) | Post-emergence action against VIOTR in % (Viola tricolor [3]; 20 g/ha) | Pre-emergence action against VIOTR (Viola tricolor [4]; 80 g/ha) | Pre-emergence action against MATIN (Matricaria inodora [6]; 80 g/ha) | Pre-emergence action against SETVI (Setaria viridis [7]) | Post-emergence action against SETVI in % (Setaria viridis [8]; 20 g/ha) | Pre-emergence action against DIGSA (Digitaria sanguinalis [9]; 80 g/ha) | Pre-emergence action against ALOMY (Alopecurus myosuroides [10]; 80 g/ha) | Pre-emergence action against AMARE (Amaranthus retroflexus [11]; 20 g/ha) | Pre-emergence action against AMARE (Amaranthus retroflexus [11]; 80 g/ha) | Pre-emergence action against ABUTH (Abutilon theophrasti [12]; 80 g/ha) | Post-emergence action against PHBPU in % (Pharbitis purpurea; 20 g/ha) | Post-emergence action against AVEFA in % (Avena fatua [13]) | Post-emergence action against AMARE in % (Amaranthus retroflexus [14]; 5 g/ha) | Post-emergence action against AMARE in % (Amaranthus retroflexus [14]; 20 g/ha) | Post-emergence action against ALOMY (Alopecurus myosuroides [15]; 20 g/ha) | Post-emergence action against ECHCG in % (Echinochloa crus-galli [16]; 20 g/ha) | Pre-emergence action against ECHCG (Echinochloa crus-galli [17]) | Post-emergence action against MATIN in % (Matricaria inodora [18]; 20 g/ha) | other results
CCN(C)C(=O)c1c(C(F)(F)F)ccc(C(=O)Nc2nnnn2C)c1C [Example 1-20, N^3-ethyl-N^3-2-dimethyl-N^1-(1-methyl-1H-tetrazol-5-yl)-4-(trifluoromethyl)isophthalamide] | 80% | 80% | 90% | 100% | 100% | 100% | 80% | 90% | 90% | 80% | 90% | 100% | 90% | – | – | – | – | – | – | – | Post-emergence action against ABUTH (Abutilon theophrasti [5]; 5 g/ha): 80%; Post-emergence action against ABUTH (Abutilon theophrasti [5]; 20 g/ha): 90%
CCN(CC)C(=O)c1c(C(F)(F)F)ccc(C(=O)Nc2nnnn2C)c1C [Example 1-31] | 90% | 90% | 90% | 100% | 100% | 100% | 100% | 100% | 100% | 100% | 100% | 100% | 90% | 80% | 90% | 90% | 90% | 90% | 80% | – | Post-emergence action against DIGSA in % (Digitaria sanguinalis [1]; 5 g/ha): 80%; Post-emergence action against ALOMY (Alopecurus myosuroides [15]; 5 g/ha): 80%; Post-emergence action against VIOTR in % (Viola tricolor [3]; 5 g/ha): 80%; Post-emergence action against SETVI in % (Setaria viridis [8]; 5 g/ha): 90%; Post-emergence action against ECHCG in % (Echinochloa crus-galli [16]; 5 g/ha): 90%; Pre-emergence action against DIGSA (Digitaria sanguinalis [9]; 20 g/ha): 100%; Post-emergence action against PHBPU in % (Pharbitis purpurea; 5 g/ha): 90%
CCN(C(=O)c1c(C(F)(F)F)ccc(C(=O)Nc2nnnn2C)c1C)C1CC1 [Example 1-32] | 90% | – | 100% | 100% | 100% | 100% | 90% | 100% | 90% | 90% | 100% | 100% | 90% | 80% | 90% | 100% | 90% | 100% | 90% | – | Post-emergence action against DIGSA in % (Digitaria sanguinalis [1]; 5 g/ha): 90%; Post-emergence action against ALOMY (Alopecurus myosuroides [15]; 5 g/ha): 80%; Post-emergence action against VIOTR in % (Viola tricolor [3]; 5 g/ha): 100%; Pre-emergence action against VIOTR (Viola tricolor [4]; 20 g/ha): 80%; Post-emergence action against SETVI in % (Setaria viridis [8]; 5 g/ha): 80%; Post-emergence action against ECHCG in % (Echinochloa crus-galli [16]; 5 g/ha): 100%; Pre-emergence action against DIGSA (Digitaria sanguinalis [9]; 20 g/ha): 90%; Post-emergence action against PHBPU in % (Pharbitis purpurea; 5 g/ha): 80%
Cc1c(C(=O)Nc2nnnn2C)ccc(C(F)(F)F)c1C(=O)N(C1CC1)C1CC1 [Example 1-40] | 90% | – | – | 100% | 90% | – | – | 100% | – | 100% | 100% | 80% | – | – | 80% | 80% | – | – | 80% | 80% | –
CCn1nnnc1NC(=O)c1ccc(C(F)(F)F)c(C(=O)N(C)C2CC2)c1Cl [Example 2-125] | 90% | – | – | 100% | 100% | 100% | – | 100% | 100% | 100% | 100% | 100% | – | 80% | 90% | 90% | 80% | – | – | 90% | Pre-emergence action against ABUTH (Abutilon theophrasti [12]; 20 g/ha): 90%
CCN(CC)C(=O)c1c(C(F)(F)F)ccc(C(=O)Nc2nnnn2CC)c1Cl [Example 2-135] | 90% | – | – | 100% | 100% | 100% | 80% | 90% | 90% | 100% | 100% | 100% | – | 80% | 80% | 90% | 90% | 80% | 100% | 80% | Post-emergence action against DIGSA in % (Digitaria sanguinalis [1]; 5 g/ha): 80%; Pre-emergence action against VIOTR (Viola tricolor [4]; 20 g/ha): 100%; Pre-emergence action against MATIN (Matricaria inodora [6]; 20 g/ha): 90%; Pre-emergence action against DIGSA (Digitaria sanguinalis [9]; 20 g/ha): 80%; Pre-emergence action against ABUTH (Abutilon theophrasti [12]; 20 g/ha): 90%
CCn1nnnc1NC(=O)c1ccc(C(F)F)c(C(=O)N(C)C2CC2)c1Cl [Example 2-156] | – | 90% | 90% | 100% | 100% | 100% | 80% | – | 90% | 100% | 100% | 100% | 80% | 90% | 100% | 100% | 90% | 90% | 100% | 90% | Post-emergence action against VERPE in % (Veronica persica [19]): 80%; Post-emergence action against VIOTR in % (Viola tricolor [3]; 5 g/ha): 90%; Post-emergence action against ABUTH (Abutilon theophrasti [5]; 20 g/ha): 90%; Pre-emergence action against MATIN (Matricaria inodora [6]; 20 g/ha): 100%; Pre-emergence action against POLCO (Polygonum convolvulus): 90%; Pre-emergence action against AVEFA (Avena fatua [20]): 90%; Post-emergence action against MATIN in % (Matricaria inodora [18]; 5 g/ha): 90%; Pre-emergence action against LOLRI (Lolium rigidum): 80%; Pre-emergence action against ALOMY (Alopecurus myosuroides [10]; 20 g/ha): 90%; Pre-emergence action against ABUTH (Abutilon theophrasti [12]; 20 g/ha): 100%; Post-emergence action against PHBPU in % (Pharbitis purpurea; 5 g/ha): 80%
